The source of these data is US10322112B2, “Compound combinations for attenuation of bacterial virulence” (priority 2016, dated 2019).

The target of experiment [1] is T1, RhlR (Pseudomonas aeruginosa, UniProt P54292).
T1 construct: expressed in transfected cells; host or cells: E. coli JLD271
Description: E. coli reporter gene antagonism assay, RhlR. Particulars: compounds at 100 mm in the presence of 10 mm BHL; untreated culture = 100%; error ±10%; selected data reproduced from Welsh et al. 2015. It counts as cell-based. The protocol: (§1) Percent agonism of a given non-native inducer in a given bacterium and QS system receptor is measured with resepct to the maximum level of agonism (activation) by the native ligand of that receptor in the given bacterium. Percent antagonism is measured in competitive assays. The QS system of interest is activated to 100% with added or endogenous native ligand and the % antagonism of the non-native inducer is assessed with respect to 100% activation by the native inducer. The native ligand which induces LasR is OdDHL, which induces RhlR is BHL and which induces PqsR is PQS. As described herein and in cited references, assays for assessment of % agonism or % atangonism may be performed in E. coli systems (heterologous) or in the bacterium of interest, e.g., Pseudomonas. Dependent upon the assay system employed native ligand may be endogenously present or it may be exogenously supplied to the assay system. […] In antagonism assays using the native strains with functional QS systems, e.g., those of P. aeruginosa, endogenous native ligand is made in the system, so no native ligand is added. In native strains having one or more non-functional QS systems (mutant strains), e.g., P. aeruginosa mutants with non-functional QS systems, native ligand is added at about 10-100× the EC50 of the native ligand. In the agonism assay, native ligand is added as a control. Details of the assays are provided herein in Example 9 and in references cited in Example 9.
A general note: Reporter assays use an easily measured gene product as a stand-in for the process of interest.

The target in experiment [2] is T2, LasR (Pseudomonas aeruginosa, UniProt P25084).
T2 construct: expressed in transfected cells; host or cells: E. coli JLD271
T2 sequence (P25084 whole entry): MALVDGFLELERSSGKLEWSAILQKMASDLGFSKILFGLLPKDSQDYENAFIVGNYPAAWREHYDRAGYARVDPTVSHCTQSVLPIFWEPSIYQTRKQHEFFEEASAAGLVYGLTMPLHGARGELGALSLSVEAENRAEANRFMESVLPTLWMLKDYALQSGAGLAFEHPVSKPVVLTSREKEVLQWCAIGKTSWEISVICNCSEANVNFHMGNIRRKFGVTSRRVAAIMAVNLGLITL
The experiment is described as follows: E. coli reporter gene primary antagonism assay, LasR. It counts as cell-based. Particulars: compounds at 100 mm against 2 nm OdDHL; E. coli beta-galactosidase reporter strain JLD271/pJN105L/pSC11; untreated culture = 100%; negative values indicate receptor agonism; error ±10%. The protocol: as §1

Experiment [3] concerns the target T3, QscR (Pseudomonas aeruginosa, UniProt G3XD77). In kind it is cell-based. Particulars: compounds at 100 mm against 15 nm OdDHL; E. coli reporter strain JLD271/pJN105Q/pSC11-Q; untreated culture = 100%; error ±10%. Further details: expressed in transfected cells; host or cells: E. coli JLD271. The text has this: (§2) Construction of pSC11-Q: A 348 bp fragment spanning the upstream region of PA1897 (¢304 to +43 relative to the PA1897 translationalstart codon) was amplified from plasmid pJL101*by using primers 5′-GAATAT GGATCC TCTCTC CGCAGA TACCTG-3′ (BamHI site underlined) SEQ ID NO:5 and 5′-GCTATT GAATTC TGAAGA TGAATA GCGCCAC-3′ (EcoRI site underlined) SEQ ID NO:6. The PCR-generated fragment was digested with EcoRI and BamHI and subsequently ligated into EcoRI/BamHI-digested pPROBE-KT to generate pPROBE-KQ2. […] CGCC-3′ (BamHI site underlined) SEQ ID NO:8. The PCR-generated fragment was digested with SalI and BamHI and subsequently ligated into SalI/BamHI-digested pSC11 to generate pSC11-Q.
(§3) E. coli reporter gene assays: Primary assays for RhlR, LasR, and QscR activity in E. coli JLD271 reporter (beta-galactosidase) strains were performed as reported by Welsh et al. 2015, with the following modifications:
(§4) For all primary and dose-response antagonism assays, the concentration of native ligand utilized was approximately equal to its EC50 value in each bacterial reporter strain. For RhlR, LasR, and QscR primary antagonism assays, synthetic ligand (100 mm) was screened against BHL (10 mm), OdDHL (2 nm), and OdDHL (15 nm), respectively. For RhlR, LasR, and QscR primary agonism assays, synthetic compound (100 mm) was screened alongside and compared to the natural ligand (900 mm BHL or 100 mm OdDHL) for the receptor. As part of the beta-galactosidase assay protocol, plates to which CPRG substrate had been added were incubated at either 25° C. (LasR assay) or 30° C. (RhlR and QscR assays) until positive control wells developed a deep red color (10 min for LasR, 30 min for RhlR, and 60 min for QscR). Dose-response reporter gene assays were performed according to these protocols by using varying concentrations of compound.

For experiment [4], the target named is T2, LasR. Description: E. coli reporter gene primary agonism assay, LasR. It counts as cell-based. Conditions: compounds at 100 mm; E. coli reporter strain JLD271/pJN105L/pSC11; 100 mm OdDHL = 100%; error ±10%. The protocol:
as §1

Experiment [5] concerns the target T1, RhlR. The experiment is described as follows: E. coli reporter gene primary agonism assay, RhlR. It counts as cell-based. Conditions: compounds at 100 mm; 900 mm BHL = 100%; error ±10%; selected data reproduced from Welsh et al., 2015. The protocol:
as §1

The target in experiment [6] is T3, QscR. Particulars: compounds at 100 mm; E. coli reporter strain JLD271/pJN105Q/pSC11-Q; 100 mm OdDHL = 100%; error ±10%.
Source text: as §2, §3, §4

T3 sequence (G3XD77 entry or part of it): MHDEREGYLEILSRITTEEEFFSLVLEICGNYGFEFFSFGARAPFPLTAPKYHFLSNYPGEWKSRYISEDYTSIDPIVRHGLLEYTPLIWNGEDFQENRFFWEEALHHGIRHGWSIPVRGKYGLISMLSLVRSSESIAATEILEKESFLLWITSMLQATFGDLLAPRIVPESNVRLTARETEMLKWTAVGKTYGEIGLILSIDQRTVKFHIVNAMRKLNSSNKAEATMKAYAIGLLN
T1 sequence (P54292 whole entry): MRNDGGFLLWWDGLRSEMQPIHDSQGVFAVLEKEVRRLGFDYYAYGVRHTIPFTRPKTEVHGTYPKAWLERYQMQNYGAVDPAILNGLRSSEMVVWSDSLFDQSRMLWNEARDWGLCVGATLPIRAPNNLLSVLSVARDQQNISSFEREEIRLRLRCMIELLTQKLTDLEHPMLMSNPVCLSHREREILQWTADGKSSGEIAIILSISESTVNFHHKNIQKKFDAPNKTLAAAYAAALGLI

Regarding `O=C(Cc1ccc(Br)cc1)N[C@@H]1CCOC1=O` [B4], at RhlR [1], the “Inhibition [%] RhlR” value turned out to be 66%. At LasR [2], the “Inhibition [%] LasR” value stood at 15%. For the same compound, at QscR [3], the “Inhibition [%] QsCR” value amounted to 37%.
Turning to `O=C(CC1CCCC1)N[C@H]1CCOC1=O` [B12], the “Activation [%] LasR” value at LasR [4] was −10%. In addition, the “Activation [%] RhlR” value at RhlR [5] is 79%. Further, the “Activation [%] QscR” value at QscR [6] worked out at 12%.
In the same order, the values of `O=C(Cc1ccccc1)N[C@H]1CCOC1=O` [C1] are −3%, 84% and 3%.
In the same order, the values of `O=C(Cc1ccc(F)cc1)N[C@H]1CCOC1=O` [C2] are 12%, 71% and 10%.
As to `O=C(Cc1cccc(F)c1)N[C@H]1CCOC1=O` [C3], the “Activation [%] LasR” value on LasR [4] is given as −2%. Also, at RhlR [5], the “Activation [%] RhlR” value was determined as 79%. Also, the “Activation [%] QscR” value on QscR [6] is on record as 13%.
Turning to `O=C(Cc1ccccc1F)N[C@H]1CCOC1=O` [C4], the “Activation [%] LasR” value at LasR [4] is listed as −4%. For the same compound, at RhlR [5], the “Activation [%] RhlR” value is reported as 66%. In addition, the “Activation [%] QscR” value at QscR [6] was 0%.
In the same order, the values of `O=C(Cc1cccc(Cl)c1)N[C@H]1CCOC1=O` [C6] are 30%, 82% and 30%.
In the same order, the values of `O=C(Cc1cccc(Br)c1)N[C@H]1CCOC1=O` [C8] are 44%, 80% and 33%.
With `O=C(Cc1ccc(I)cc1)N[C@H]1CCOC1=O` [C10], the “Inhibition [%] RhlR” value at RhlR [1] worked out at 84%. Further, at LasR [2], the “Inhibition [%] LasR” value came to 58%. Besides, at QscR [3], the “Inhibition [%] QsCR” value is −79%.
In the case of `O=C(Cc1cccc(I)c1)N[C@H]1CCOC1=O` [C11], the “Activation [%] LasR” value at LasR [4] is recorded as 56%. For the same compound, the “Activation [%] RhlR” value at RhlR [5] stood at 63%. At QscR [6], the “Activation [%] QscR” value is listed as 34%.
In the same order, the values of `O=C(Cc1ccccc1I)N[C@H]1CCOC1=O` [C12] are −4%, 70% and 5%.
Regarding `O=C(Cc1ccc([N+](=O)[O-])cc1)N[C@H]1CCOC1=O` [C13], the “Inhibition [%] RhlR” value at RhlR [1] was 60%. Moreover, the “Inhibition [%] LasR” value at LasR [2] was 91%. In addition, the “Inhibition [%] QsCR” value on QscR [3] is 14%.
In the same order, the values of `O=C(Cc1c(F)c(F)c(F)c(F)c1F)N[C@H]1CCOC1=O` [C16] are 66%, 76% and 74%.
In the same order, the values of `Cc1ccc(CC(=O)N[C@H]2CCOC2=O)cc1` [C19] are 87%, 81% and 64%.
In the same order, the values of `O=C(Cc1ccc(C(F)(F)F)cc1)N[C@H]1CCOC1=O` [C20] are 86%, 93% and 26%.
For `C=CCCC(=O)N[C@H]1CCOC1=O` [D8], the “Activation [%] LasR” value at LasR [4] was found to be 26%. Moreover, the “Activation [%] RhlR” value at RhlR [5] was 81%. In addition, the “Activation [%] QscR” value on QscR [6] amounted to 13%.
Turning to `O=C(COc1ccc(OC(F)(F)F)cc1)N[C@H]1CCOC1=O` [D15], on RhlR [1], the “Inhibition [%] RhlR” value came to 61%. For the same compound, on LasR [2], the “Inhibition [%] LasR” value is on record as −80%. For the same compound, the “Inhibition [%] QsCR” value at QscR [3] came to 4%.
Turning to `Cc1cccc(CC(=O)N[C@H]2CCOC2=O)c1` [E1], at LasR [4], the “Activation [%] LasR” value is on record as 21%. On RhlR [5], the “Activation [%] RhlR” value worked out at 69%. Besides, the “Activation [%] QscR” value at QscR [6] is reported as 29%.
Take `COc1cccc(CC(=O)N[C@H]2CCOC2=O)c1` [E2]: the “Activation [%] LasR” value on LasR [4] is reported as 23%. Besides, the “Activation [%] RhlR” value at RhlR [5] is 86%. The “Activation [%] QscR” value on QscR [6] was found to be 26%.
In the same order, the values of `N#Cc1cccc(CC(=O)N[C@H]2CCOC2=O)c1` [E5] are 62%, 67% and 34%.
Take `CSc1ccc(CC(=O)N[C@H]2CCOC2=O)cc1` [E6]: the “Inhibition [%] RhlR” value at RhlR [1] was found to be 78%. Besides, the “Inhibition [%] LasR” value on LasR [2] was found to be 85%. The “Inhibition [%] QsCR” value on QscR [3] is 24%.
As for `CSc1cccc(CC(=O)N[C@H]2CCOC2=O)c1` [E7], the “Activation [%] LasR” value on LasR [4] was determined as 32%. The “Activation [%] RhlR” value on RhlR [5] is on record as 70%. On QscR [6], the “Activation [%] QscR” value is recorded as 24%.
Take `O=C(Cc1ccc(SC(F)(F)F)cc1)N[C@H]1CCOC1=O` [E8]: the “Inhibition [%] RhlR” value at RhlR [1] stood at 65%. For the same compound, the “Inhibition [%] LasR” value at LasR [2] came out at 23%. On QscR [3], the “Inhibition [%] QsCR” value is 40%.
In the same order, the values of `O=C(Cc1ccc(Cl)c(Cl)c1)N[C@H]1CCOC1=O` [E11] are 62%, 28% and 15%.
With `O=C(Cc1ccc2ccccc2c1)N[C@H]1CCOC1=O` [E12], the “Inhibition [%] RhlR” value at RhlR [1] is on record as 77%. For the same compound, at LasR [2], the “Inhibition [%] LasR” value came to 81%. Further, at QscR [3], the “Inhibition [%] QsCR” value was 60%.
In the same order, the values of `Cc1ccc(OCC(=O)N[C@H]2CCOC2=O)cc1` [E15] are 75%, 84% and 33%.
In the same order, the values of `COc1ccc(OCC(=O)N[C@H]2CCOC2=O)cc1` [E17] are 66%, 83% and 36%.
In the same order, the values of `O=C(COc1ccc(Br)cc1)N[C@H]1CCOC1=O` [E21] are 66%, 31% and 20%.
Turning to `O=C(COc1ccc(C(F)(F)F)cc1)N[C@H]1CCOC1=O` [E23], the “Inhibition [%] RhlR” value at RhlR [1] was 64%. The “Inhibition [%] LasR” value at LasR [2] is reported as −49%. Also, the “Inhibition [%] QsCR” value at QscR [3] turned out to be 22%.
In the case of `O=C(CCc1ccc(Cl)cc1)N[C@H]1CCOC1=O` [E30], the “Activation [%] LasR” value at LasR [4] stood at 53%. Moreover, at RhlR [5], the “Activation [%] RhlR” value turned out to be 64%. The “Activation [%] QscR” value on QscR [6] was 79%.
In the same order, the values of `O=C(CCc1cccc(Br)c1)N[C@H]1CCOC1=O` [E31] are 71%, 65% and 58%.
Turning to `CSc1ccc(CCC(=O)N[C@H]2CCOC2=O)cc1` [E34], the “Inhibition [%] RhlR” value at RhlR [1] amounted to 62%. Moreover, the “Inhibition [%] LasR” value on LasR [2] is reported as −52%. The “Inhibition [%] QsCR” value at QscR [3] is reported as −190%.
Regarding `O=C(CCc1ccc([N+](=O)[O-])cc1)N[C@H]1CCOC1=O` [E37], the “Activation [%] LasR” value at LasR [4] came out at 22%. Also, at RhlR [5], the “Activation [%] RhlR” value is 69%. Further, the “Activation [%] QscR” value at QscR [6] is given as 65%.
In the case of `O=C(CCCC1CCCCC1)N[C@H]1CCOC1=O` [S6], at RhlR [1], the “Inhibition [%] RhlR” value is reported as 69%. Also, the “Inhibition [%] LasR” value on LasR [2] came out at 56%. In addition, on QscR [3], the “Inhibition [%] QsCR” value was determined as 34%.
